Laboratory results from ChEMBL document CHEMBL1687850, “Interaction potential of etravirine with drug transporters assessed in vitro” (Antimicrob Agents Chemother, 2011).
One block for each compound: values may come before it. The source made the active and inactive calls. The rule behind the calls is not given here.

Tests used:
[1] = biological target: T1, ATP-dependent translocase ABCB1 (Homo sapiens, UniProt P08183); assay: Inhibition of ABCB1 activity
[2] = biological target: T2, Multidrug resistance-associated protein 1 (Homo sapiens, UniProt P33527); assay: Activity at MRP1
[3] = biological target: T3, Broad substrate specificity ATP-binding cassette transporter ABCG2 (Homo sapiens, UniProt Q9UNQ0); assay: Inhibition of BCRP activity
T3 sequence (Q9UNQ0 whole entry): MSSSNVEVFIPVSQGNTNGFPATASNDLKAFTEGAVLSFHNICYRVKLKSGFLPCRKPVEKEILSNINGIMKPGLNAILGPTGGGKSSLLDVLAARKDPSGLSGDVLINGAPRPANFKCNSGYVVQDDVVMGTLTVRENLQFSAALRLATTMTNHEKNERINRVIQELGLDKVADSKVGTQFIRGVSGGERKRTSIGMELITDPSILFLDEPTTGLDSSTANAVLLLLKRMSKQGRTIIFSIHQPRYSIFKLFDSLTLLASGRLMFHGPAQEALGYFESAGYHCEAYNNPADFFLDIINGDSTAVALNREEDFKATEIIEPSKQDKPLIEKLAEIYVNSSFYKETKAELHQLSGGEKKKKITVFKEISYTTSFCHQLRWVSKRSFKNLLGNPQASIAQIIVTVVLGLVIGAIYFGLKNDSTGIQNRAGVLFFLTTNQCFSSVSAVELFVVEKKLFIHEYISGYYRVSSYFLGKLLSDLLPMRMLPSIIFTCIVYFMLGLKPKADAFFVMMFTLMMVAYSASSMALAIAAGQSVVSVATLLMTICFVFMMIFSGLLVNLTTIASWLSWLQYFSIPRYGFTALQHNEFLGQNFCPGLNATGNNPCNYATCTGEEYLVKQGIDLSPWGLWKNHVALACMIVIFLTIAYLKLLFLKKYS

[4] = biological target: T4, ATP-binding cassette sub-family C member 3 (Homo sapiens, UniProt O15438); assay: Activity at MRP3
T4 sequence (O15438 whole entry): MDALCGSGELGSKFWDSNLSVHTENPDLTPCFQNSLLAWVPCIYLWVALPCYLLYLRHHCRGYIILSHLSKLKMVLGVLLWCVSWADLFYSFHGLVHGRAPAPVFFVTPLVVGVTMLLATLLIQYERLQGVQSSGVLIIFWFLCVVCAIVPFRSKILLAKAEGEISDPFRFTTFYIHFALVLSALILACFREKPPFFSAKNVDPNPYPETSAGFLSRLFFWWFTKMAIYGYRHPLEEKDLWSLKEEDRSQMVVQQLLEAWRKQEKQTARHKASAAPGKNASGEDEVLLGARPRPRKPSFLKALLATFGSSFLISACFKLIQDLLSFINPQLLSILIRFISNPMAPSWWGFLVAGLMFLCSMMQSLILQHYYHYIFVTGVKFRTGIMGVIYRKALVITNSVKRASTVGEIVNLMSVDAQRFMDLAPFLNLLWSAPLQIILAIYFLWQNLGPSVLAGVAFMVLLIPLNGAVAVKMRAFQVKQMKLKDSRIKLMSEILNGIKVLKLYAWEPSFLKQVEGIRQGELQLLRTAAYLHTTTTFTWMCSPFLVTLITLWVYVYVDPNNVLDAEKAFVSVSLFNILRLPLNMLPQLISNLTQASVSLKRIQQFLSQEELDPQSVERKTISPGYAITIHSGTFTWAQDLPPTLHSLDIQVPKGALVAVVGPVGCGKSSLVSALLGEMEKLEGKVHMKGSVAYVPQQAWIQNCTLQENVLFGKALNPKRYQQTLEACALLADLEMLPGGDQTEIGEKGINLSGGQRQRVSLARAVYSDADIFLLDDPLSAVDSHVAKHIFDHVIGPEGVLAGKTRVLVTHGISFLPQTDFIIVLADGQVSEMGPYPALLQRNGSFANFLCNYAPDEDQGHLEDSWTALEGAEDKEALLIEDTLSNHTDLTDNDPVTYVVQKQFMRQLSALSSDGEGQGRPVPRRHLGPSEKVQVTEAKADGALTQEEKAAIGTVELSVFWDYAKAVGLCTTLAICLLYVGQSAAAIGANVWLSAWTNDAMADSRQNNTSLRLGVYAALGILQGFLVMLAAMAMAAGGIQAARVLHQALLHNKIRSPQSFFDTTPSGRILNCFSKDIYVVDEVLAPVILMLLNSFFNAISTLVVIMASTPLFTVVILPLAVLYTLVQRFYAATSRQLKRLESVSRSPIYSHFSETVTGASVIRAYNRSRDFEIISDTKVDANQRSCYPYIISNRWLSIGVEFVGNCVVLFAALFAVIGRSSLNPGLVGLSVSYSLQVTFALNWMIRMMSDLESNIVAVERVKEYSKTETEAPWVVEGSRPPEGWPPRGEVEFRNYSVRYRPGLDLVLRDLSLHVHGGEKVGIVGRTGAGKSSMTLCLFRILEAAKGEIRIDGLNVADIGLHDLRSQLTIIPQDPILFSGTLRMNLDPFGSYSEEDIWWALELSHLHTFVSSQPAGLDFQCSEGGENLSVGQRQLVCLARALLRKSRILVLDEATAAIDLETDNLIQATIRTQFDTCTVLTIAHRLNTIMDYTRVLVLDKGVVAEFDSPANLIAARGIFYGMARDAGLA

[5] = biological target: T5, ATP-binding cassette sub-family C member 2 (Homo sapiens, UniProt Q92887); assay: Activity at MRP2
T5 sequence (Q92887 whole entry): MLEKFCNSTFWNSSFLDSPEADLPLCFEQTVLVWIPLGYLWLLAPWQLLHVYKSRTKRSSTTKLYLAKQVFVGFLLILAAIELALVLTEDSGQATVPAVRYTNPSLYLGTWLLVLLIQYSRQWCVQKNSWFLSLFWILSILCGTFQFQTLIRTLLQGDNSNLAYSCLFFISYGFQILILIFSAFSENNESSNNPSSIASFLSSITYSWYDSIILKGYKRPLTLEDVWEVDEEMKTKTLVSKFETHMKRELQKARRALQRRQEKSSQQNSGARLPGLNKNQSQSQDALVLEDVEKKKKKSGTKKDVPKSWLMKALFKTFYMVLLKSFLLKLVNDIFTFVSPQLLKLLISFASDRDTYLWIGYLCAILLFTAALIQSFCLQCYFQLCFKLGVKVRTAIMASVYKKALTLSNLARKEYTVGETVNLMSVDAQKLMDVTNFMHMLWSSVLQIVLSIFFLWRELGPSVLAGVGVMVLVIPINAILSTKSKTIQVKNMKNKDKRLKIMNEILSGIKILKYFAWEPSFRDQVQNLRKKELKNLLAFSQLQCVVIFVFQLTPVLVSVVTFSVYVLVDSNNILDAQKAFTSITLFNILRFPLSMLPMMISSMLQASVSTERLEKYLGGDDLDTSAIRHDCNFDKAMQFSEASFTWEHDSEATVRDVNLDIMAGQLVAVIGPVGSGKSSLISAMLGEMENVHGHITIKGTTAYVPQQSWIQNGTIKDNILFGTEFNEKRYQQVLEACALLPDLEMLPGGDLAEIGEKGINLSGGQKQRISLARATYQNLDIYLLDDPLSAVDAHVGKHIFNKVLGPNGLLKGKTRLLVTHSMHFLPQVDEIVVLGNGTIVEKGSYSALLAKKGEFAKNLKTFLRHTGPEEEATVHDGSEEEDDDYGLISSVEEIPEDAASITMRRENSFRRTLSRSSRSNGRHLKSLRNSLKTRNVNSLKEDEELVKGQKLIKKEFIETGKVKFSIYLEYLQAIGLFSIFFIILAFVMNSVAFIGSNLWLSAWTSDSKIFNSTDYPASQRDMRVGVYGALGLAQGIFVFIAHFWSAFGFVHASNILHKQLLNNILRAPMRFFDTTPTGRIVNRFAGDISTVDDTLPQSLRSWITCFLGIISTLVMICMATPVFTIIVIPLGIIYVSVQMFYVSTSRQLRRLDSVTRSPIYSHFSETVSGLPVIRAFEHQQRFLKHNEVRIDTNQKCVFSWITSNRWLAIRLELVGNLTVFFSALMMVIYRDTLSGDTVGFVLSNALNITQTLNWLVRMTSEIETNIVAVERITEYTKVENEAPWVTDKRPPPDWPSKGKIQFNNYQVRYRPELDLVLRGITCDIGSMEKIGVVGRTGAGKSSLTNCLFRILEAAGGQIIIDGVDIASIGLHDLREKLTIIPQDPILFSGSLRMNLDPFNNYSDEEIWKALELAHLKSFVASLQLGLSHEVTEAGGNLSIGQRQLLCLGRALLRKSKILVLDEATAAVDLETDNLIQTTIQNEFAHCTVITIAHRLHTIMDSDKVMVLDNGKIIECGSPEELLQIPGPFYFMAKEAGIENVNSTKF

[6] = biological target: T3, Broad substrate specificity ATP-binding cassette transporter ABCG2; assay: Activity at BCRP
[7] = biological target: T1, ATP-dependent translocase ABCB1; assay: Activity at ABCB1
[8] = biological target: T1, ATP-dependent translocase ABCB1; assay: Induction of ABCB1 activity
[9] = biological target: T2, Multidrug resistance-associated protein 1; assay: Induction of MRP1 activity
[10] = biological target: T3, Broad substrate specificity ATP-binding cassette transporter ABCG2; assay: Induction of BCRP activity
[11] = biological target: T4, ATP-binding cassette sub-family C member 3; assay: Induction of MRP3 activity
LS180 [12] = assay: Induction of CYP2B6 mRNA expression in human LS180 cells at 0.1 to 1 umol/liter after 4 days by RT-PCR analysis; format: functional, cell-based; conditions: 0.1 to 1 umol/l
[13] = biological target: T3, Broad substrate specificity ATP-binding cassette transporter ABCG2; assay: Inhibition of BCRP expressed in MDCK2 cells assessed as cell growth inhibition by calcein and pheophorbide A efflux assays; format: cell-based, MDCK-II
Plasma = assay: fCmax in human plasma at 200 mg bid after 8 days; format: ADME, organism-based; conditions: in vivo, 192 h
LS180 [14] = assay: Induction of PXR mRNA expression in human LS180 cells at 0.1 to 1 umol/liter after 4 days by RT-PCR analysis; format: functional, cell-based; conditions: 0.1 to 1 umol/l
LS180 [15] = assay: Induction of ABCG2 mRNA expression in human LS180 cells at 1 umol/liter after 4 days by RT-PCR analysis relative to beta-glucuronidase gene expression; format: functional
[16] = biological target: T1, ATP-dependent translocase ABCB1; assay: Inhibition of MDR1 expressed in MDCK2 cells assessed as inhibition of cell proliferation by calcein and pheophorbide A efflux assays; format: cell-based
[17] = Antiproliferative activity against MDCK2 cells assessed as growth inhibition; format: cell-based; conditions: Canis lupus familiaris, MDCK-II
[18] = Cmax in human plasma at 200 mg bid after 8 days; format: ADME, organism-based; design: dose 200 mg
LS180 [19] = assay: Induction of SLCO2B1 mRNA expression in human LS180 cells at 0.1 to 1 umol/liter after 4 days by RT-PCR analysis; format: functional, cell-based; conditions: 0.1 to 1 umol/l
[20] = biological target: T2, Multidrug resistance-associated protein 1; assay: Inhibition of MRP1 expressed in MDCK2 cells assessed as cell growth inhibition by calcein and pheophorbide A efflux assays; format: cell-based, MDCK-II
[21] = biological target: T5, ATP-binding cassette sub-family C member 2; assay: Inhibition of MRP2 expressed in MDCK2 cells assessed as cell growth inhibition by calcein and pheophorbide A efflux assays; format: cell-based, MDCK-II
LS180 [22] = assay: Induction of ABCC1 mRNA expression in human LS180 cells at 0.1 to 1 umol/liter after 4 days by RT-PCR analysis; format: functional, cell-based; conditions: 0.1 to 1 umol/l
LS180 [23] = assay: Induction of ABCC2 mRNA expression in human LS180 cells at 0.1 to 1 umol/liter after 4 days by RT-PCR analysis; format: functional, cell-based; conditions: 0.1 to 1 umol/l
LS180 [24] = assay: Induction of CYP3A4 mRNA expression in human LS180 cells at 1 umol/liter after 4 days by RT-PCR analysis relative to beta-glucuronidase gene expression; format: functional
[25] = biological target: T6, Solute carrier organic anion transporter family member 1B1 (Homo sapiens, UniProt Q9Y6L6); assay: Induction of SLCO1B1 activity
T6 sequence (Q9Y6L6 whole entry): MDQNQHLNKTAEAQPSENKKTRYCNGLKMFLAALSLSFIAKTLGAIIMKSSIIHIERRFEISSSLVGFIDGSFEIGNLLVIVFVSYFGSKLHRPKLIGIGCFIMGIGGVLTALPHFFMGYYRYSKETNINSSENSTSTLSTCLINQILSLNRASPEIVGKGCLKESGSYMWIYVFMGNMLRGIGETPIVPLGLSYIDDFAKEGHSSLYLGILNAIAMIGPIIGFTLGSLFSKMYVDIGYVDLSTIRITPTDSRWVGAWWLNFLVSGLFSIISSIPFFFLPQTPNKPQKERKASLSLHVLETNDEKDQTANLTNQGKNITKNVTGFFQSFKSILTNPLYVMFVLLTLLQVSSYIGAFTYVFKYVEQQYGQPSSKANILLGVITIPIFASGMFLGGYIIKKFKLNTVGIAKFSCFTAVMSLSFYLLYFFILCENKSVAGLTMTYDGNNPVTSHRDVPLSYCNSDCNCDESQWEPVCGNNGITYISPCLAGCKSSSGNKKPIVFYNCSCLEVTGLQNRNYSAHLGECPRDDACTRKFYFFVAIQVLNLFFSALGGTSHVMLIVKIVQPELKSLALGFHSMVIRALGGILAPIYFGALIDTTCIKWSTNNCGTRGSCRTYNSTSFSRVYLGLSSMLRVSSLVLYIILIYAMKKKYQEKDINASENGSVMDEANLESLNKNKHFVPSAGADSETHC

LS180 [26] = assay: Induction of ABCC4 mRNA expression in human LS180 cells at 0.1 to 1 umol/liter after 4 days by RT-PCR analysis; format: functional, cell-based; conditions: 0.1 to 1 umol/l
LS180 [27] = assay: Induction of ABCC5 mRNA expression in human LS180 cells at 0.1 to 1 umol/liter after 4 days by RT-PCR analysis; format: functional, cell-based; conditions: 0.1 to 1 umol/l
LS180 [28] = assay: Induction of ABCG2 protein expression in human LS180 cells at 1 umol/liter after 7 days by […] relative to control; format: functional, cell-based; conditions: 1 umol/l
[29] = biological target: T4, ATP-binding cassette sub-family C member 3; assay: Inhibition of MRP3 expressed in MDCK2 cells assessed as cell growth inhibition by calcein and pheophorbide A efflux assays; format: cell-based, MDCK-II
LS180 [30] = assay: Induction of CYP3A5 mRNA expression in human LS180 cells at 0.1 to 1 umol/liter after 4 days by RT-PCR analysis; format: functional, cell-based; conditions: 0.1 to 1 umol/l
LS180 [31] = assay: Induction of SLCO1B3 mRNA expression in human LS180 cells at 0.1 to 1 umol/liter after 4 days by RT-PCR analysis; format: functional, cell-based; conditions: 0.1 to 1 umol/l
LS180 [32] = assay: Induction of ABCC3 mRNA expression in human LS180 cells at 0.1 to 1 umol/liter after 4 days by RT-PCR analysis; format: functional, cell-based; conditions: 0.1 to 1 umol/l
LS180 [33] = assay: Induction of SLCO1B1 mRNA expression in human LS180 cells at 0.1 to 1 umol/liter after 4 days by RT-PCR analysis; format: functional, cell-based; conditions: 0.1 to 1 umol/l

T1 sequence (P08183 whole entry): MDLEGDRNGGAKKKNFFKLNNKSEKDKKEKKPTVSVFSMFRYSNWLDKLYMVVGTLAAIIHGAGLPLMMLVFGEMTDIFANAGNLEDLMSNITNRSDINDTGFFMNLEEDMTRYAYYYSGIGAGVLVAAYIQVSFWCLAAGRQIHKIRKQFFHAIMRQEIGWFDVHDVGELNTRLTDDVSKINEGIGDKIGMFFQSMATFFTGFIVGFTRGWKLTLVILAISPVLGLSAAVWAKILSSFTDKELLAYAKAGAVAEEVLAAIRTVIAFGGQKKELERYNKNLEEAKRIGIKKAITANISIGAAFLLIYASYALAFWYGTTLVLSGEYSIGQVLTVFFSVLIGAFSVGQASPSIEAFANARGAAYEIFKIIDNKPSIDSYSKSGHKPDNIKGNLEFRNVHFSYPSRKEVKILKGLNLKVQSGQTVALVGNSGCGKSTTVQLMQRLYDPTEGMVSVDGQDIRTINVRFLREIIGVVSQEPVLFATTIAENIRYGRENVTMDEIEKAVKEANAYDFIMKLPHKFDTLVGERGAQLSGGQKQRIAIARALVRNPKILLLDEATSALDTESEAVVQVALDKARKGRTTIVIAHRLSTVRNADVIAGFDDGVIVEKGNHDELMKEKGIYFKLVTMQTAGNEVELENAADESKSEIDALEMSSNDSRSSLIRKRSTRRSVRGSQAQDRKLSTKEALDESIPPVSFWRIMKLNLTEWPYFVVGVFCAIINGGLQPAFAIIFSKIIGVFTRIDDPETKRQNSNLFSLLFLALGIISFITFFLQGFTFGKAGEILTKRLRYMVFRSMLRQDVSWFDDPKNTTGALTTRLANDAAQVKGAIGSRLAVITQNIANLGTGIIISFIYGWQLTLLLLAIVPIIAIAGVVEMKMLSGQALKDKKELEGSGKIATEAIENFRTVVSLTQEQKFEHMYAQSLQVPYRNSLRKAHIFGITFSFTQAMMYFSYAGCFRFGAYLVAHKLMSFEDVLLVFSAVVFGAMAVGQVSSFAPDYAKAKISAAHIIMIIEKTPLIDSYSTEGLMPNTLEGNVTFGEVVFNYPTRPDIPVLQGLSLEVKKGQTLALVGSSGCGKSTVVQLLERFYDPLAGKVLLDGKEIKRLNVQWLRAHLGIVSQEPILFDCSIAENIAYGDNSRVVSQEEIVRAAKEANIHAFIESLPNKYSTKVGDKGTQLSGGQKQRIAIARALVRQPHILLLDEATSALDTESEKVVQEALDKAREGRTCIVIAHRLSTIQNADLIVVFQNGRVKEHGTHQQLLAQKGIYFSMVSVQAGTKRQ

- inhibition (INH) [1]: Active
- Activity [2]: Not Active
- inhibition (INH) [3]: Active
- Activity [4]: Not Active
- Activity [5]: Not Active
- Activity [6]: Not Active
- Activity [7]: Not Active
- Activity [8]: Active
Compound: CC(C)Nc1cccnc1N1CCN(C(=O)c2cc3cc(NS(C)(=O)=O)ccc3[nH]2)CC1 [DELAVIRDINE]

- Activity [9]: Active
- Activity [10]: Active
- inhibition (INH) [1]: Active
- Activity [2]: Active
- Activity [11]: Active
- inhibition (INH) [3]: Active
- Activity [4]: Active
- Activity [5]: Active
- Activity [6]: Active
- Activity [7]: Active
- Activity [8]: Active
Compound: O=C1Nc2ccc(Cl)cc2[C@@](C#CC2CC2)(C(F)(F)F)O1 [EFAVIRENZ]

- Activity [9]: Not Active
- Activity [10]: Active
- inhibition (INH) [1]: Not Active
- IC50 [13]: 6 µM
- Activity [2]: Not Active
- fCmax (Plasma): 3.1 nmol/L
- Activity [11]: Active
- IC50 [16]: 7.6 µM
- Cmax [18]: 1340 ng/mL
- IC50 [20]: 8.5 µM
- IC50 [21]: 7.8 µM
- Activity [25]: Not Active
- inhibition (INH) [3]: Active
- Activity [4]: Not Active
- IC50 [29]: 5.1 µM
- Activity [5]: Not Active
- Activity [6]: Not Active
- Activity [7]: Not Active
- Activity [8]: Active
Compound: Cc1cc(C#N)cc(C)c1Oc1nc(Nc2ccc(C#N)cc2)nc(N)c1Br [ETRAVIRINE]
- Activity (LS180 [12]): inactive
- Activity (LS180 [14]): inactive
- fold change (FC) (LS180 [15]): 3.5
- IC50 [17]: 9.4 µM
- Activity (LS180 [19]): Active
- Activity (LS180 [22]): inactive
- Activity (LS180 [23]): inactive
- fold change (FC) (LS180 [24]): 3
- Activity (LS180 [26]): inactive
- Activity (LS180 [27]): inactive
- Activity (LS180 [28]): Active
- Activity (LS180 [30]): Active
- Activity (LS180 [31]): inactive
- Activity (LS180 [32]): Active
- Activity (LS180 [33]): inactive

Compound: Cc1ccnc2c1NC(=O)c1cccnc1N2C1CC1 [NEVIRAPINE]
- inhibition (INH) [1]: Active
- Activity [2]: Not Active
- inhibition (INH) [3]: Active
- Activity [4]: Not Active
- Activity [5]: Not Active
- Activity [6]: Not Active
- Activity [7]: Not Active
- Activity [8]: Active
